A word on the melting point: it is the temperature of the solid-liquid transition. Usually inhibition stands for the share of the control response that was lost under treatment. The low end stands for little suppression, the high end for strong suppression. In general, IC50 refers to the concentration that inhibits the measured activity by half.

The target of one data set is T1, CDK5/GST-p25 (Homo sapiens, UniProt Q00535).
T1 construct: The final construct, encoding for full-length human CDK5; made in house; host or cells: Sf21 insect cells (baculovirus co-infection)
Put plainly: Inhibition of CDK5/GST-p25 kinase activity (ELISA with time-resolved fluorescence readout). In kind it is biochemical. In a few lines: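 Sf21-coexpressed full-length human CDK5 with GST-p25 (p35 aa 108-307), glutathione-purified, at 2 ng/ml was reacted for 20 min at 37 °C on plate-coated GST-Rb(773-928). Buffer was 20 mM HEPES pH 7.2, 10 µM ATP, 10 mM MgCl2 and 2.5% DMSO. Phospho-Rb Ser-780 was detected by Eu-labelled antibody TRF, and IC50 curves were fitted.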
Background: ELISA stands for enzyme-linked immunosorbent assay.

Another data set deals with T2, His6-GSK-3β (Homo sapiens, UniProt P49841).
T2 construct: made in house; host or cells: Sf21 insect cells (baculovirus)
The data set can be described thus: Inhibition of His6-GSK-3β kinase activity (ELISA-based format, time-resolved fluorescence readout). The following applies: for IC50: read-out: GSK3β IC50. It counts as biochemical. In a few lines:
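N-terminal His6-tagged full-length human GSK-3β (aa 2-419) expressed in Sf21 cells, 200 ng/ml, phosphorylating plate-coated GST-Rb with 20 μM ATP in pH 7.2 HEPES buffer, 30 min at 37° C. Phospho-Rb (Ser-780) detected by antibody plus Eu-labelled secondary, time-resolved fluorescence; IC50 from curves.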

Read-outs that look alike come from different tables or passages of the source.

T1 sequence (Q00535 whole entry): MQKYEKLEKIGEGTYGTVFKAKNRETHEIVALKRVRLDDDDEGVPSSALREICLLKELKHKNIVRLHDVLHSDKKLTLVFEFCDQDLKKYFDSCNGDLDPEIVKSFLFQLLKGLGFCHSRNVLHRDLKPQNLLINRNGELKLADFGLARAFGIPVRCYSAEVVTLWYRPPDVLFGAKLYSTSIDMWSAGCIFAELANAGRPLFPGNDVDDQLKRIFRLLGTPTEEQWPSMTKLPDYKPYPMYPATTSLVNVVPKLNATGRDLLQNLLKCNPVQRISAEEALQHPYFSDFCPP
T1 sequence (Q15078 108-307 partner limits assumed): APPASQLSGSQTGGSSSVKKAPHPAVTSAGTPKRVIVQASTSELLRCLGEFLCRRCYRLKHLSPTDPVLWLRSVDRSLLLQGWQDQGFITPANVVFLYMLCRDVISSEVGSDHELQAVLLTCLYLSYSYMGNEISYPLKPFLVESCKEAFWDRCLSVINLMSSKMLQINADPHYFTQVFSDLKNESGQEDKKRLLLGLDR
T2 sequence (P49841 2-419): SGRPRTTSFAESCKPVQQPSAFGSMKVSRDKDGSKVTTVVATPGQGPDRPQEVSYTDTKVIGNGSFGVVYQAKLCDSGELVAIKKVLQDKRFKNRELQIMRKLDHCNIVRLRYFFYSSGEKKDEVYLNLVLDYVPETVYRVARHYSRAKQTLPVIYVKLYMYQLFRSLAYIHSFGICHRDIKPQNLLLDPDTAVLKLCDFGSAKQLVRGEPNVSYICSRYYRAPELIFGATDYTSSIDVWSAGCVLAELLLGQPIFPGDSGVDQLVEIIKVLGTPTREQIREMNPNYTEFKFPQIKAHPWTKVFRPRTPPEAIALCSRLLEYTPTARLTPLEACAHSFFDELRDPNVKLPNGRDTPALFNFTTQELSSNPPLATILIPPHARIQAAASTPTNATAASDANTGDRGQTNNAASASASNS

For the compound `CC(C)Nc1nc(C2C(=O)Nc3ccc(C#N)cc32)c2cn(C3CCCC3)nc2n1` (stereo not drawn) [Example 150, 3-(2-cyclopentyl-6-isopropylamino-2H-pyrazolo [3,4-d]pyrimidin-4-yl)-2-oxo-2,3-dihydro-1H-indole-5-carbonitrile], the melting point is above 300 °C. Further, on CDK5/GST-p25, testing at 10 µM gave an inhibition of 76%. Moreover, the IC50 on His6-GSK-3β (class symbols) is below 0.3 µM.
In turn, `CCCn1cc2c(C3C(=O)Nc4ccc(S(=O)(=O)N(C)C)cc43)nc(Cl)nc2n1` (stereo not drawn) [Example 204, 3-(6-Chloro-2-propyl-2H-pyrazolo [3,4-d]pyrimidin-4-yl)-2-oxo-2,3-dihydro-1H-indole-5-sulfonic acid dimethylamide] registered a melting point above 300 °C. Also, on CDK5/GST-p25 (class symbols), the 50% inhibitory concentration (IC50) was 0.3 to 3 µM. Moreover, the IC50 at His6-GSK-3β (numeric bounds) was above 3 µM.
The compound `N#Cc1ccc2c(c1)C(c1ncnc3c1cnn3C1CCCC1)C(=O)N2` (stereo not drawn) [Example 55, 3-(1-Cyclopentyl-1H-pyrazolo[3,4-d]pyrimidin-4-yl)-2-oxo-2,3-dihydro-1H-indole-5-carbonitrile] displayed a melting point above 300 °C. At CDK5/GST-p25 (class symbols), this compound had an IC50 above 10 µM. On His6-GSK-3β (class symbols), the IC50 is 0.3 to 3 µM.
In the case of `CCCn1cc2c(C3C(=O)Nc4ccc(Br)cc43)nc(NCCN)nc2n1` (stereo not drawn) [Example 200, 3-[6-(2-Amino-ethylamino)-2-propyl-2H-pyrazolo [3,4-d]pyrimidin-4-yl]-5-bromo-1,3-dihydro-indol-2-one], the melting point lay within 272 to 276 °C. The IC50 on CDK5/GST-p25 (class symbols) is below 0.3 µM. The IC50 at His6-GSK-3β (class symbols) is below 0.3 µM.
Regarding `O=C1Nc2ccc(C(F)(F)F)cc2C1c1ncnc2c1cnn2C1CCCC1` (stereo not drawn) [Example 56, 3-(1-Cyclopentyl-1H-pyrazolo [3,4-d]pyrimidine-4-yl)-5-trifluoromethyl-1,3-dihydro-indol-2-one], the melting point was above 300 °C. This compound gave a half-maximal inhibitory concentration (IC50) at CDK5/GST-p25 (class symbols) above 10 µM. Besides, on His6-GSK-3β (class symbols), the IC50 was above 10 µM.
As to `CC(C)Cn1cc2c(C3C(=O)Nc4ccc(Br)cc43)nc(NCCN3CCOCC3)nc2n1` (stereo not drawn) [Example 264, 5-Bromo-3-[2-isobutyl-6-(2-morpholin-4-yl-ethylamino)-2H-pyrazolo[3,4-d]pyrimidin-4-yl]-1,3-dihydro-indol-2-one], the melting point is 282 to 287 °C. On CDK5/GST-p25 (class symbols), the IC50 is below 0.3 µM. Besides, the IC50 at His6-GSK-3β (class symbols) is below 0.3 µM.
The compound `COCCn1cc2c(C3C(=O)Nc4ccc(Br)cc43)nc(Cl)nc2n1` (stereo not drawn) [Example 225, 5-Bromo-3-[6-chloro-2-(2-methoxy-ethyl)-2H-pyrazolo [3,4-d]pyrimidin-4-yl]-1,3-dihydro-indol-2-one] showed a melting point above 300 °C. The same compound displayed an IC50 at CDK5/GST-p25 (class symbols) above 10 µM. Further, the IC50 on His6-GSK-3β (class symbols) is below 0.3 µM.
`Cn1ncc2c(C3C(=O)Nc4ccc(Br)cc43)ncnc21` (stereo not drawn) [Example 85, 5-Bromo-3-(1-methyl-1H-pyrazolo[3,4-d]pyrimidin-4-yl)-1,3-dihydro-indol-2-one] showed a melting point above 350 °C. The compound further showed an IC50 at CDK5/GST-p25 (class symbols) below 0.3 µM. Besides, the IC50 on His6-GSK-3β (numeric bounds) was above 3 µM.
In the case of `C=CCNc1nc(C2C(=O)Nc3ccccc32)c2cn(C3CCCC3)nc2n1` (stereo not drawn) [Example 243, 3-(6-Allylamino-2-cyclopentyl-2H-pyrazolo[3,4-d]pyrimidin-4-yl)-1,3-dihydro-indol-2-one], the melting point is above 300 °C. The compound further had an inhibition at 10 µM against CDK5/GST-p25 of 63%. Also, on His6-GSK-3β (numeric bounds), the concentration for half-maximal inhibition (IC50) is above 1 µM.
With `O=C1Nc2ccc(Br)cc2C1c1ncnc2nn(C3CCCC3)cc12` (stereo not drawn) [Example 31, 5-Bromo-3-(2-Cyclopentyl-2H-pyrazolo[3,4-d]pyrimidin-4-yl)-2-oxo-1,3-dihydro-indol-2-one], the melting point was 319 to 322 °C (dec.). On CDK5/GST-p25 (class symbols), the IC50 was below 0.3 µM. The IC50 on His6-GSK-3β (class symbols) is below 0.3 µM.
For the compound `N#Cc1ccc2c(c1)C(c1nc(N(CCO)CCO)nc3nn(C4CCCC4)cc13)C(=O)N2` (stereo not drawn) [Example 168, 3-{6-[bis(2-hydroxyethyl)amino]-2-cyclopentyl-2H-pyrazolo[3,4-d]pyrimidin-4-yl}-2-oxo-2,3-dihydro-1H-indole-5-carbonitrile], the melting point lay in the range of 243 to 243.5 °C. The same compound had an IC50 at CDK5/GST-p25 (class symbols) below 0.3 µM. The IC50 on His6-GSK-3β (class symbols) is below 0.3 µM.
The compound `CCCn1cc2c(C3C(=O)Nc4ccc(Br)cc43)nc(NCCc3cccnc3)nc2n1` (stereo not drawn) [Example 189, 5-Bromo-3-[2-propyl-6-(2-pyridin-3-yl-ethylamino)-2H-pyrazolo [3,4-d]pyrimidin-4-yl]-1,3-dihydro-indol-2-one] showed a melting point of 294 to 297 °C. Further, the IC50 on CDK5/GST-p25 (class symbols) is below 0.3 µM. Also, on His6-GSK-3β (class symbols), the half-maximal inhibitory concentration (IC50) was below 0.3 µM.
The compound `CCOCCn1cc2c(C3C(=O)Nc4ccc(Cl)cc43)nc(Cl)nc2n1` (stereo not drawn) [Example 211, 5-Chloro-3-[6-chloro-2-(2-ethoxy-ethyl)-2H-pyrazolo[3,4-d]pyrimidin-4-yl]-1,3-dihydro-indol-2-one] showed a melting point above 300 °C. The compound also yielded an IC50 against CDK5/GST-p25 (class symbols) above 10 µM. In addition, the IC50 at His6-GSK-3β (class symbols) was above 10 µM.
Compound `C[C@@H](O)CNc1nc(C2C(=O)Nc3ccc(Br)cc32)c2cn(C3CCCC3)nc2n1` (stereo partly drawn) [Example 373] showed a melting point above 300 °C. Moreover, 10 µM produced 67% inhibition against CDK5/GST-p25. The IC50 at His6-GSK-3β (class symbols) is below 0.3 µM.
`CC(C)CNc1nc(C2C(=O)Nc3ccc(C#N)cc32)c2cn(C3CCCC3)nc2n1` (stereo not drawn) [Example 165, 3-(2-cyclopentyl-6-isobutylamino-2H-pyrazolo [3,4-d]pyrimidin-4-yl)-2-oxo-2,3-dihydro-1H-indole-5-carbonitrile] had a melting point of 297 to 298.5 °C. Further, the IC50 against CDK5/GST-p25 (class symbols) is below 0.3 µM. The half-inhibitory concentration (IC50) on His6-GSK-3β (class symbols) was below 0.3 µM.
For `COCCn1cc2c(C3C(=O)Nc4ccc(Br)cc43)nc(NCCN3CCOCC3)nc2n1` (stereo not drawn) [Example 234, 5-Bromo-3-[2-(2-methoxy-ethyl)-6-(2-morpholin-4-yl-ethylamino)-2H-pyrazolo[3,4-d]pyrimidin-4-yl]-1,3-dihydro-indol-2-one], the melting point was above 300 °C. Besides, the IC50 at CDK5/GST-p25 (class symbols) was below 0.3 µM. Also, the IC50 at His6-GSK-3β (class symbols) was below 0.3 µM.
In turn, `O=C1Nc2c(cc([N+](=O)[O-])cc2[N+](=O)[O-])C1c1ncnc2nn(C3CCCC3)cc12` (stereo not drawn) [Example 43, 3-(2-Cyclopentyl-2H-pyrazolo[3,4-d]pyrimidin-4-yl)-5,7-dinitro-1,3-dihydro-indol-2-one] showed a melting point above 300 °C. The IC50 against CDK5/GST-p25 (class symbols) lay within 0.3 to 3 µM. The IC50 on His6-GSK-3β (class symbols) lay in the range of 0.3 to 3 µM.
The compound `COCCn1cc2c(C3C(=O)Nc4ccc(Br)cc43)nc(NCc3cccnc3)nc2n1` (stereo not drawn) [Example 232, 5-Bromo-3-{2-(2-methoxy-ethyl)-6-[(pyridin-3-ylmethyl)-amino]-2H-pyrazolo[3,4-d]pyrimidin-4-yl}-1,3-dihydro-indol-2-one] returned a melting point of 300 to 301 °C. Besides, the half-maximal inhibitory concentration (IC50) against CDK5/GST-p25 (class symbols) was below 0.3 µM. Further, the IC50 at His6-GSK-3β (class symbols) is below 0.3 µM.
`CCCCCn1cc2c(C3C(=O)Nc4ccc(C#N)cc43)nc(NC)nc2n1` (stereo not drawn) [Example 294, 3-(6-Methylamino-2-pentyl-2H-pyrazolo [3,4-d]pyrimidin-4-yl)-2-oxo-2,3-dihydro-1H-indole-5-carbonitrile]: the melting point was above 310 °C. The inhibition at 10 µM on CDK5/GST-p25 stood at 73%. In addition, on His6-GSK-3β (@10 μM), the “GSK3β % @10 μM” value was determined as 70% @10 μM.
Compound `O=C1Nc2c(F)cc(F)cc2C1c1ncnc2nn(C3CCCC3)cc12` (stereo not drawn) [Example 35, 3-(2-Cyclopentyl-2H-pyrazolo[3,4-d]pyrimidin-4-yl)-5,7-difluoro-1,3-dihydro-indol-2-one] returned a melting point of 296 to 297 °C. At CDK5/GST-p25 (numeric bounds), the IC50 is above 3 µM. For the same compound, on His6-GSK-3β (class symbols), the IC50 is 0.3 to 3 µM.
For the compound `O=C1Nc2ccc(C(F)(F)F)cc2C1c1nc(NCc2ccncc2)nc2nn(C3CCCC3)cc12` (stereo not drawn) [Example 246, 3-{2-Cyclopentyl-6-[(pyridin-4-ylmethyl)-amino]-2H-pyrazolo[3,4-d]pyrimidin-4-yl}-5-trifluoromethyl-1,3-dihydro-indol-2-one], the melting point is above 300 °C. Moreover, the IC50 at CDK5/GST-p25 (numeric bounds) is above 3 µM. Further, the IC50 at His6-GSK-3β (class symbols) was below 0.3 µM.
With `N#Cc1cccc2c1NC(=O)C2c1ncnc2nn(C3CCCC3)cc12` (stereo not drawn) [Example 39, 3-(2-Cyclopentyl-2H-pyrazolo[3,4-d]pyrimidin-4-yl)-2-oxo-2,3-dihydro-1H-indole-7-carbonitrile], the melting point was above 380 °C. This compound also returned an IC50 against CDK5/GST-p25 (class symbols) below 0.3 µM. For the same compound, the IC50 at His6-GSK-3β (class symbols) fell in the range of 0.3 to 3 µM.
As for `CCCCCn1cc2c(C3C(=O)Nc4ccc(C(F)(F)F)cc43)nc(NCCCN3CCOCC3)nc2n1` (stereo not drawn) [Example 290, 3-[6-(3-Morpholin-4-yl-propylamino)-2-pentyl-2H-pyrazolo[3,4-d]pyrimidin-4-yl]-5-trifluoromethyl-1,3-dihydro-indol-2-one], the melting point is 230 °C (dec.). Further, testing at 10 µM at CDK5/GST-p25 gave an inhibition of 73%. Also, the IC50 on His6-GSK-3β (class symbols) was below 0.3 µM.
Take `CNCCCNc1nc(C2C(=O)Nc3ccc(Br)cc32)c2cn(C3CCCC3)nc2n1.Cl` (stereo not drawn) [Example 379, 5-Bromo-3-[2-cyclopentyl-6-(3-methylamino-propylamino)-2H-pyrazolo[3,4-d]pyrimidin-4-yl]-1,3-dihydro-indol-2-one hydrochloride salt]: the melting point lay in the range of 208 to 211 °C. The compound also gave an IC50 at CDK5/GST-p25 (numeric bounds) above 3 µM. The IC50 at His6-GSK-3β (class symbols) was below 0.3 µM.
